Measurements published in PMC12022909, “A Multicomponent Reaction-Based Platform Opens New Avenues in Aryl Hydrocarbon Receptor Modulation” (ACS Central Science, 2025).

Columns and labels:
[1] = system: HaCaT cells; design: method as in PMID 25431849, PMID 34418602; details: cited from earlier work
[2] = molecular target: T1, AhR (Homo sapiens, UniProt P35869); assay: Global proteomics (TMT labeling, LC/MS) in MCF7 cells; format: cell-based; details: 10 μM, 5 h
T1 construct: Degradation of endogenous AhR was further confirmed via Western blotting and global proteomics measurements in cells treated with 12b; host or cells: MCF7
T1 sequence (P35869 11-848): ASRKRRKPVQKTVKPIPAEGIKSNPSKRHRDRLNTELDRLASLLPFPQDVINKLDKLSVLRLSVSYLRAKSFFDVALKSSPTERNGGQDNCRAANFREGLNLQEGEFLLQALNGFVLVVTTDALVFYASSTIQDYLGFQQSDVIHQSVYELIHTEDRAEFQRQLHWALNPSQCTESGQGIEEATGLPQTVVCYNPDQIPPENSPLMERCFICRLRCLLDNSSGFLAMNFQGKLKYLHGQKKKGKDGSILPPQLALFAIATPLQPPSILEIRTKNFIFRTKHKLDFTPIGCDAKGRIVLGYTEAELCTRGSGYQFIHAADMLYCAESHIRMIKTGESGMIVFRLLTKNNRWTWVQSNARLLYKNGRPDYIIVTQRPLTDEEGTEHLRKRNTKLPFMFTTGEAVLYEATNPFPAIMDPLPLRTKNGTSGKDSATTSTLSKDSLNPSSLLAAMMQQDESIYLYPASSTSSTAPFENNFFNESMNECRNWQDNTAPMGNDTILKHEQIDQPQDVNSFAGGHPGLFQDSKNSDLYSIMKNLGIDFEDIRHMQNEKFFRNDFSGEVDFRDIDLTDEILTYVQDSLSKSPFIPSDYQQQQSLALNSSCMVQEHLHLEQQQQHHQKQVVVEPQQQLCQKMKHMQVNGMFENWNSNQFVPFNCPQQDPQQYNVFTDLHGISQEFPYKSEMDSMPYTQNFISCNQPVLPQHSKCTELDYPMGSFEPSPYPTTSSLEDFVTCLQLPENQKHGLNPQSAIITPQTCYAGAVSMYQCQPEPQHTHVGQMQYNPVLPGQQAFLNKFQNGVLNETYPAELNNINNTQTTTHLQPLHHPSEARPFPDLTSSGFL
Description: (§1) Figure 6 Bifunctional AhR probes and AhR reporter in MCF7 cells. (a) Synthetic access to the conjugatable AhR ligand 5m. (b) Structure, yield, and EC50 value of the model amide 12a and MD simulation of AhR with 12a (last snapshot). (c) PROTAC-like compound 12b and dual probes 12c–d. Reaction conditions: (a) 5m (1 equiv), amine (1 equiv), HATU, DIPEA, DMF, rt, 24 h, Ar atm; (b) 5m (2 equiv), diamine (1 equiv), HATU, DIPEA, DMF, rt, 24 h, Ar atm. (d) General setup of the reporter system for quantifying AhR protein levels. (e) The population of MCF7 reporter cells (MCF7 AhR-GFP.IRES.mCherry) gated by flow cytometry and used for quantification of AhR. […] Values represent the ratio of the geometric mean of GFP and mCherry values in the gated population. (g) Change in protein levels relative to vehicle treatment (DMSO) in MCF7 cells treated with 12b at 10 μM for 5 h quantified by TMT labeling and LC/MS analysis versus p-Value. TEXT PRINTED IN THE PICTURE: (b) 12a: EC50 = 0.40 μM […]
Generation of reporter cell lines
The MCF7.AhR-GFP.IRES.mCherry and MCF7.AhRdPasB(d275-342)-GFP.IRES.mCherryreporter cell line was generated via lentivirus transduction. The coding sequence of the full length AhR (NM_001621.5), as well as the PasB deleted AhR (d275-342) were synthesized and cloned into a Lenti virus transfer plasmid (Artichoke, Addgene #73320), with hereby the resistance was swapped from puromycin to hygromycin. To produce the virus, 550k Lenti-X 293T cells (Takeda #632180) were seeded in a six-well plate with 3 mL of growth medium. The following day, a plasmid solution containing psPAX2 (500 ng), pVSV-G (5 ng), and AhR transfer plasmid (500 ng) was diluted in 21.5 μL of OPTIMEM, reaching a total volume of 32.5 μL. […]
For the flow cytometry experiments 150k cells were seeded in a 24 well-plate format in 0.5 mL growing medium and left to grow in the incubator for 16 h. […] They were subsequently measured on a BD LSR II and the data analyzed with FlowJo software (version 10.5.3, TreeStar). […]

[3] = molecular target: T2, aryl hydrocarbon receptor (AhR) (Homo sapiens, UniProt P35869); assay: AhR/XRE-dependent luciferase reporter gene assay in XRE-HepG2 cells; format: cell-based; details: XRE-HepG2 cells, 8 h; unit as in the supplements; read-out: AhR/XRE-dependent luciferase activity EC50
T2 construct: AhR-dependent reporter gene activity was determined in human HepG2 cells stably transfected with an XRE; endogenous in cells; host or cells: XRE-HepG2 (human HepG2 hepatoma cells stably carrying an XRE-luciferase plasmid)
T2 sequence (P35869 11-848): T1 sequence (P35869 11-848)
Description: (f) AhR/XRE-dependent reporter gene activity results (EC50/μM).
Data are shown as mean ± SEM.
The human XRE -HepG2 reporter cell -line was a kind gift of K. Gradin and L. Poellinger (Karolinska Institute, Stockholm,
antibiotic/antimycotic solution, and 0.8 mg/ml G418. All cells were cultivated at 37 °C in a humidified atmosphere containing 5% CO 2.
AhR-dependent reporter gene activity was determined in human HepG2 cells stably transfected with an XRE -harboring luciferase plasmid (XRE-HepG2 cells). […] Luciferase activity was normalized to protein content.

[4] = molecular target: T3, AhR-GFP (Homo sapiens, UniProt P35869); assay: MCF7 AhR-GFP.IRES.mCherry reporter, flow cytometry quantification of AhR protein levels; format: cell-based; details: 5 μM, 5 h
T3 construct: host or cells: MCF7, lentiviral transduction
T3 sequence (P08238 whole entry partner, one chain of several): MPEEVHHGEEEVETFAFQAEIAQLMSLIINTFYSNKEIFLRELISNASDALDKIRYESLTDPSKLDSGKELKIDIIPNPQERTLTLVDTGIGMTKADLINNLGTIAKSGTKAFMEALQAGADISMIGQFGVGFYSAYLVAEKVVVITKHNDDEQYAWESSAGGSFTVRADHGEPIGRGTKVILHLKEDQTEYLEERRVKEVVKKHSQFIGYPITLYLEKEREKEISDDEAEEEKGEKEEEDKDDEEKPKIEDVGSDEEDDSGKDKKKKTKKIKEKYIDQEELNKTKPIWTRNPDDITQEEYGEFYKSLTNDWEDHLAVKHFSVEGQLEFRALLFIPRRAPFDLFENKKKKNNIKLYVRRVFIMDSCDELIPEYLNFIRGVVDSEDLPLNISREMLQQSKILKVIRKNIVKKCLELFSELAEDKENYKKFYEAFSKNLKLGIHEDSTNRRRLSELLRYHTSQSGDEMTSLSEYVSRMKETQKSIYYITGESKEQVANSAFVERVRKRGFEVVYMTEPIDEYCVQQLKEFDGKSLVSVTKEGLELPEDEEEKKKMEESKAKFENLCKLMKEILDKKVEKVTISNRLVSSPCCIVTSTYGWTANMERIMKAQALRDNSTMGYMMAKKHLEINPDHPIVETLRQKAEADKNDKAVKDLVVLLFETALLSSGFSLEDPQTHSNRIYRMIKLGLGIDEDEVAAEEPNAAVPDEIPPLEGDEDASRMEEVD
T3 sequence (O00170 whole entry partner, one chain of several): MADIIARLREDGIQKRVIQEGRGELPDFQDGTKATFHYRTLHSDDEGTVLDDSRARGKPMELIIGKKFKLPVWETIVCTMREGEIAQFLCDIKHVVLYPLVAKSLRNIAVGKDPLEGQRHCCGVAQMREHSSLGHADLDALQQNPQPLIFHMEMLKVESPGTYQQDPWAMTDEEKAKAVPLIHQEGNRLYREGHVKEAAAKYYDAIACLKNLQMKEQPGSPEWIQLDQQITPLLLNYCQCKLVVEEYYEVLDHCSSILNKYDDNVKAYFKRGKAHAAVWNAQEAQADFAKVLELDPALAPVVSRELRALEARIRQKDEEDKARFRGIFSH
Description: as §1
To test the effect of these compounds on AhR abundance, we established a cellular reporter in the breast cancer cell line MCF7. AhR in this case is fused to GFP bearing an independently translated mCherry on the same transcript to allow correction for general transcriptional interference of treatments (Figure 6d,e). […]

| Compound | UVA photosensitization [1] | degradation of common CRBN-thalidomide off-target factors (zinc finger proteins, GSPT1) [2] | induced transcriptional activity (CYP1A1 and CYP1B1 protein levels) [2] | selectivity of protein degradation [2] | EC50 [3] [nM] | AhR degradation in reporter system [4] |
| --- | --- | --- | --- | --- | --- | --- |
| 6-formylindolo[3,2-b]carbazole [FICZ] | nanomolar sensitizer for UVA radiation |  |  |  |  |  |
| O=C1CCC(N2C(=O)c3cccc(OCCOCCOCCOCCNC(=O)c4ccc5c(-c6c7[nH]c8ccccc8c7cc7[nH]c8ccccc8c67)c[nH]c5c4)c3C2=O)C(=O)N1 (stereo not drawn) [12b] |  | absence of degradation | upregulation of CYP1A1 and CYP1B1 | selectivity for AhR degradation | 200 | pronounced AhR degradation |
